Where a name gives a salt, the structure may show the parent alone.
What was measured:
[1] = test system: iron loaded Cebus apella monkey; experiment: Iron-balance study (iron clearing efficiency) in iron-loaded Cebus apella monkeys
Procedure: After intramuscular anesthesia with ketamine, an intravenous infusion is started in a leg vein. […] Two to three infusions, separated by between 10 and 14 days, may be necessary to provide about 500 mg iron per Kg body weight. […] At least twenty half-lives, sixty days, passes before using any of the animals in experiments evaluating iron-chelating agents.
Seven days before the administration of the drug, the animals are placed in metabolic cages and started on a low-iron liquid diet. The monkeys are maintained on the low-iron liquid diet for the duration of the experiment. They are given food according to their body weight, and intake is very carefully monitored.
Three days prior to drug administration, day −2 to day 0, baseline iron intake and output values are measured. This same measurement is made for day +1 to day +3. The total amount of iron intake is compared with the total amount of iron excreted.
Fecal and urine samples are collected at 24 hour intervals. The collections begin four days prior to the administration of the test drug and continue for an additional five days after the drug is given. Fecal samples are assayed for the presence of occult blood, weighed, and mixed with distilled deionized water prior to autoclaving for 30 minutes. The mixture is then freeze-dried, and a known portion of the powder is mixed with low-iron nitric acid and refluxed for 24 hours. Once any particulate matter in the digested samples is removed by centrifugation, iron concentrations are determined by flame atomic absorption. Monkey urine samples are acidified and reconstituted to initial volume after sterilization, if necessary.
The monosodium salt of HBED in distilled H2O was given to the monkeys intravenously (IV) at a single dose of 75 μmol/kg (34.6 mg/kg n=4).

[2] = IV bolus, conscious rats, 200-300 mg/kg
[3] = Impact of IV chelator on blood pressure and heart rate in normotensive rats; format: in vivo, Sprague Dawley rats
Procedure: Owing to the profound impact that DFO administered IV can have on blood pressure and cardiac function (Whitten, D. F.; Gibson, G. W.; Good, M. H.; Goodwin, J. F.; Brough, A. J. Studies in Acute Iron Poisoning. I. Desferrioxamine in the Treatment of Acute Iron Poisoning: Clinical Observations, Experimental Studies, and Theoretical Considerations. Pediatrics 1965, 36, 322-335), the manufacter recommends that the drug be given by this route at doses not to exceed 15 mg/kg/h (22 μmol/kg/h). In addition, patients suffering from acute iron toxicity should be given DFO IV only under circumstances of cardiovascular collapse, and even then at doses not to exceed 15 mg/kg/h for the first 1000 mg. Subject IV dosing, if needed, must be at a slower rate not to exceed 125 mg/h. Upon consideration of this, this example compares the impact of DFO and NaHBED administered IV on blood pressure and heart rate in normotensive rodents. The chelators were administered at a dose of 300 μmol/kg in a 0.5-ml volume either by IV bolus (n=5 for both drugs) or by IV infusion over a 20-min period (n=5 for NaHBED, n=4 for DFO) in accordance with the following procedure.
The basic procedure has been described in an earlier publication (Bergeron, R. J.; Wiegand, J.; Sninsky, C. A.; Katovich, M. J. The Impact of Polyamine Analogues on the Blood Pressure of Normotensive and Hypertensive Rats. Clin. Exp. Hypertension 1995, 17, 1197-1217). Briefly, normotensive adult male Sprague Dawley rats (400 g) were anesthetized with sodium pentobarbital (55 mg/kg IP). After the neck and shoulder areas were prepared for surgery, an incision was made into the neck area. The proximal end of the carotid artery was tied off with 3-0 silk; the other end was clamped. Once a piece of PE-50 tubing was inserted approximately 3 cm into the artery and tied into place; the tubing was skin tunneled to the shoulder area. The jugular vein was cannulated using a similar procedure. Both of the tubings were flushed with heparin (100 U/ml); a stylet was inserted.
Approximately 24 h after the surgery, the animals were placed into individual cages and were connected to a blood pressure transducer (ADInstrurnents, Inc., Milford, MA) via the carotid catheter. […]
After a ½-h stabilization period, 0.5 ml of saline was administered as an IV bolus via the jugular vein catheter, and the blood pressure and heart rate were monitored for 5 min. […] The blood pressure and heart rate readings were taken for 1 h post-drug, during which the animals were unrestrained.
Rats receiving the drug as a 20-min IV infusion (n=5 for HBED, n=4 for DFO) were allowed to acclimate as above. […] Blood pressure and heart rate were monitored during the infusion and for one hour thereafter.

[4] = typical, parenteral therapy; cited from earlier work
[5] = test system: iron loaded Cebus apella monkey; details: Cebus apella monkey screen, DFOM subcutaneous (Bergeron et al. 1993; Peter et al. 1994); cited from earlier work
[6] = given orally to human patients; cited from earlier work
[7] = IV push, single dose 75 μmol/kg
[8] = 300 μmol/kg, 20-min IV infusion

## O=C(O)CN(CCN(CC(=O)O)Cc1ccccc1O)Cc1ccccc1O [HBED monosodium salt, N,N′-bis(2-hydroxybenzyl)-ethylenediamine-N,N′-diacetic acid]
[1]; IV push 75 μmol/kg vs subcutaneous DFOM
  net iron excretion relative to similar doses of subcutaneous DFOM: nearly three times
[1]; [7]
  share of excreted iron in the stool: 70%
  share of excreted iron in the urine: 30%
[2]
  side-effects: no apparent side-effects
[3]; 300 μmol/kg IV bolus
  effect on blood pressure: no effect
  effect on heart rate: no effect
[3]; [8]
  effect on blood pressure: no effect
  effect on heart rate: no effect

## CC(=O)N(O)CCCCCNC(=O)CCC(=O)N(O)CCCCCNC(=O)CCC(=O)N(O)CCCCCN [DFO, deferoxamine B]
[4]
  share of the compound administered that binds iron: ≤ 5%
[5]
  activity compared with HBED or its dimethyl ester given orally: significantly higher activity

## O=C(O)CN(CCN(CC(=O)O)Cc1ccccc1O)Cc1ccccc1O [HBED, N,N′-bis(2-hydroxybenzyl)-ethylenediamine-N,N′-diacetic acid]
[6]
  iron excretion level: ineffective for the treatment of iron overload
